{
  "source": "patent US4351948A",
  "about": "“Imidazole hydrazone derivatives” (priority 1980, dated 1982)",
  "key": {"C. albicans": {"tested_on": "C. albicans", "assay": "Recovery of viable candida cells from the kidneys of infected mice (p.o. and i.v. treatment)", "format": "in vivo", "conditions": "25 mg/kg 1 h and 24 h after infection", "protocol": "Mice receive 25×10^4 cells of C. albicans i.v. Treatments (25 mg/kg) administered in PEG/Dextrose 1 h and 24 h after infection. Animals sacrified 48 h after infection and kidneys excised, weighed, homogenized and decimal dilutions spread on glucose-peptone agar."}, "[1]": {"tested_on": "Trichophyton mentagrophytes", "assay": "Experimental Trichophyton mentagrophytes infection in guinea pigs", "format": "in vivo", "from_the_text": "Effect of oral or topical administration of HC274, HC344, Clotrimazole, and Ketoconazole on experimental Trichophyton mentagrophytes infection in guinea pigs.\n*Based on degree of hair loss, erythema, desquamation, Max. = 100\nTreatments administered in Carbopol® gel, once daily days 5-10."}, "Escherichia coli": {"tested_on": "Escherichia coli", "assay": "Anti-bacterial activity, zone diameter", "format": "cell-based", "conditions": "50 μg, read-out: Zone diameter given by 50 μg of drug", "from_the_text": "(§1) The anti-bacterial activity of the compound HC274 according to the present invention was also compared with the activity of known anti-bacterial agents with the following results: […]"}, "Klebsiella pneumoniac": {"tested_on": "Klebsiella pneumoniac", "assay": "Anti-bacterial activity, zone diameter", "format": "cell-based", "conditions": "50 μg; Klebsiella pneumoniac; read-out: Zone diameter given by 50 μg of drug", "from_the_text": "as §1"}, "Nocardia asteroides": {"tested_on": "Nocardia asteroides", "assay": "Anti-bacterial activity, zone diameter", "format": "cell-based", "conditions": "50 μg, read-out: Zone diameter given by 50 μg of drug", "from_the_text": "as §1"}, "Nocardia brasiliensis": {"tested_on": "Nocardia brasiliensis", "assay": "Anti-bacterial activity, zone diameter", "format": "cell-based", "conditions": "50 μg, read-out: Zone diameter given by 50 μg of drug", "from_the_text": "as §1"}, "Proteus vulgaris": {"tested_on": "Proteus vulgaris", "assay": "Anti-bacterial activity, zone diameter", "format": "cell-based", "conditions": "50 μg, read-out: Zone diameter given by 50 μg of drug", "from_the_text": "as §1"}, "Staphylococcus aureus": {"tested_on": "Staphylococcus aureus", "assay": "Anti-bacterial activity, zone diameter", "format": "cell-based", "conditions": "50 μg, read-out: Zone diameter given by 50 μg of drug", "from_the_text": "as §1"}, "Streptococcus pyrogenes": {"tested_on": "Streptococcus pyrogenes", "assay": "Anti-bacterial activity, zone diameter", "format": "cell-based", "conditions": "50 μg; Streptococcus pyrogenes; read-out: Zone diameter given by 50 μg of drug", "from_the_text": "as §1"}, "pseudomonas aeruginosa": {"tested_on": "pseudomonas aeruginosa", "assay": "Anti-bacterial activity, zone diameter", "format": "cell-based", "conditions": "50 μg; pseudomonas aeruginosa; read-out: Zone diameter given by 50 μg of drug", "from_the_text": "as §1"}, "[2]": {"tested_on": "Clostridium sporogenes ATCC 19404", "assay": "Minimal inhibitory concentration against anaerobic bacteria", "format": "cell-based", "conditions": "ATCC19404, 24 h"}, "C. sporogenes ATCC 19404": {"tested_on": "C. sporogenes ATCC 19404", "assay": "Antianaerobic activity, MIC by standard broth dilution method (Table II)", "format": "cell-based", "conditions": "Clostridium sporogenes, ATCC19404, 24 h, read-out: Minimal Inhibitory Concentration (MIC)", "outline": "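Minimum inhibitory concentration determined by standard broth dilution against a single Clostridium sporogenes strain under anaerobic test conditions.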"}, "[3]": {"tested_on": "platelet thromboxane generation", "assay": "Inhibition of platelet thromboxane generation (TxB2, collagen-stimulated human platelet rich plasma)", "format": "cell-based", "conditions": "Homo sapiens, 10 min, read-out: Activity IC50 (50% inhibition of TxB2 generation)", "protocol": "The compounds used according to the invention as anti-thrombotics were tested by the following method for their ability to inhibit platelet thromboxane generation.\nHuman venous blood was collected from healthy male donors, who had denied any medication in the previous 14 days. Nine volumes of blood were mixed with one volume of 3.24% trisodium citrate. The citrated blood was centrifuged at 160 g for 10 mins. at 22° C. to obtain platelet rich plasma (PRP). The platelets were then counted on a Coulter counter, and the platelet count was adjusted to 200,000 per μl with plasma.\nThe PRP was then dispensed as aliquots into micro-Eppendorf tubes, maintained at 37° C. in a dry bath. The compounds dissolved either in saline, ethanol, or DMSO were added in duplicate to the PRP aliquots to produce final concentrations of 0.3, 3 and 30 μg/ml. When ethanol and DMSO were used as the vehicle, triplicate controls containing the same percentage of vehicle as the test compounds were made. The final concentration or organic solvent was never more than 0.1%, which in previous experiments had no effect on TxB2 generation.\nFollowing a 10 min. incubation with test compounds or vehicle, collagen was added to produce a final concentration of 8 μg/ml. The tubes were then whirly-mixed for 15 seconds and replaced in the dry bath for a further 10 minutes, controls received saline instead of collagen. The reaction was then stopped by rapid centrifugation, 15,000 g for 3 mins. The plasma was removed and frozen at -29° C. until assayed.\nBriefly, 100 μl aliquots, in tricine buffered saline+0.8% gelatin (pH 8.0) of the following were incubated together for 1 hour at 37° C.: thromboxane Tx B2 (plasma extract, spiked plasma extract or standards 20 to 20,000 pg/ml), ^3 H--TxB2 (approximately 15,000 dpm) and anti-TxB2 antiserum (0.5 μg/100 μl). The free and protein bound ^3 H--TxB2 were separated by ammonium sulphate precipitation followed by centrifugation. 300 μl of the supernatant was added to an aqueous scintillation fluid, and the radioactivity present was counted in a liquid scintillation counter. The binding of ^3 H--TxB2 in the absence of added TxB2 was approximately 55%. The least amount of TxB2 to be detected accurately in the plasma was 0.08 ng/ml. Cross reactivity with other prostaglandins is less than 0.005% except PGD2 which is 1%.\nThus plasma samples were assayed to give a rough approximation of TxB2 content. The plasma was then appropriately diluted and assayed in duplicate to give accurate values.\nThe amount of TxB2 generated by the collagen was calculated by subtracting mean values obtained for the saline stimulated platelets from the mean values obtained from the collagen stimulated platelets. Then the amount of TxB2 generated in the presence of each concentration of compound was expressed as a % control and dose response curves were then constructed to determine the concentration of compound which produced a 50% inhibition."}, "[4]": {"tested_on": "Bacteroides fragilis ATCC 23745", "assay": "Minimal inhibitory concentration against anaerobic bacteria", "conditions": "ATCC23745, 24 h"}, "[5]": {"tested_on": "Desulfovibrio desulfuricans API-CORE", "assay": "Minimal inhibitory concentration against anaerobic bacteria", "conditions": "24 h"}, "[6]": {"conditions": "read-out: Minimal Inhibitory Concentration, Test 1, 24 hours at 37° C."}, "[7]": {"conditions": "read-out: Minimal Inhibitory Concentration, Test 2, 24 hours at 37° C."}, "[8]": {"conditions": "read-out: Minimal Inhibitory Concentration, Test 3, 24 hours at 37° C."}},
  "note": "Like-named read-outs stand apart in the source and are kept apart here.",
  "data": [
    {"smiles": "Cl.Clc1ccc(/C(Cn2ccnc2)=N\\Nc2ccc(Cl)cc2Cl)cc1", "note": "[HC274, (E)-1-(4-chlorophenyl)-2-(1H-imidazol-1-yl)ethanone, 2,4-dichlorophenylhydrazone, hydrochloride]", "values": [
      {"measurement": "No. of CFU/g kidney at 48 h", "setting": "C. albicans; i.v.", "result": "9 × 10^2 CFU/g kidney"},
      {"measurement": "No. of CFU/g kidney at 48 h", "setting": "C. albicans; p.o.", "result": "3.3 × 10^3 CFU/g kidney"},
      {"measurement": "Disease rating (degree of hair loss, erythema, desquamation, Max. = 100)", "setting": "[1]; 40 mg/kg p.o., day 5 after infection", "result": 100},
      {"measurement": "Disease rating (degree of hair loss, erythema, desquamation, Max. = 100)", "setting": "[1]; 40 mg/kg p.o., day 10 after infection", "result": 46.9},
      {"measurement": "Disease rating (degree of hair loss, erythema, desquamation, Max. = 100)", "setting": "[1]; topical, 1% w/w in Carbopol gel once daily days 5-10, day 10 after infection", "result": 35.4},
      {"measurement": "Disease rating (degree of hair loss, erythema, desquamation, Max. = 100)", "setting": "[1]; topical, 1% w/w in Carbopol gel, day 5 after infection", "result": 100},
      {"measurement": "zone of inhibition at 50 µg/disc", "setting": "Escherichia coli", "result": 0, "unit": "mm"},
      {"measurement": "zone of inhibition at 50 µg/disc", "setting": "Klebsiella pneumoniac", "result": 0, "unit": "mm"},
      {"measurement": "zone of inhibition at 50 µg/disc", "setting": "Nocardia asteroides", "result": 11, "unit": "mm"},
      {"measurement": "zone of inhibition at 50 µg/disc", "setting": "Nocardia brasiliensis", "result": 12, "unit": "mm"},
      {"measurement": "zone of inhibition at 50 µg/disc", "setting": "Proteus vulgaris", "result": 0, "unit": "mm"},
      {"measurement": "zone of inhibition at 50 µg/disc", "setting": "Staphylococcus aureus", "result": 8, "unit": "mm"},
      {"measurement": "zone of inhibition at 50 µg/disc", "setting": "Streptococcus pyrogenes", "result": 9, "unit": "mm"},
      {"measurement": "zone of inhibition at 50 µg/disc", "setting": "pseudomonas aeruginosa", "result": 0, "unit": "mm"},
      {"measurement": "MIC", "setting": "[2]; Test 1, 24 hours at 37° C.", "result": 2.5, "unit": "µg/mL"},
      {"measurement": "MIC", "setting": "[2]; Test 2, 24 hours at 37° C.", "result": 2.5, "unit": "µg/mL"},
      {"measurement": "MIC", "setting": "[2]; Test 3, 24 hours at 37° C.", "result": 7.5, "unit": "µg/mL"},
      {"measurement": "MIC", "setting": "C. sporogenes ATCC 19404; Test 1", "result": 2.5, "unit": "µg/mL"},
      {"measurement": "MIC", "setting": "C. sporogenes ATCC 19404; Test 2", "result": 2.5, "unit": "µg/mL"},
      {"measurement": "MIC", "setting": "C. sporogenes ATCC 19404; Test 3", "result": 7.5, "unit": "µg/mL"},
      {"measurement": "IC50", "setting": "[3]", "result": 15.9, "unit": "µM"},
      {"measurement": "MIC", "setting": "[4]; [6]", "result": 2.5, "unit": "µg/mL"},
      {"measurement": "MIC", "setting": "[4]; [7]", "result": 5, "unit": "µg/mL"},
      {"measurement": "MIC", "setting": "[4]; [8]", "result": 7.5, "unit": "µg/mL"},
      {"measurement": "MIC", "setting": "[5]; [6]", "result": 0.75, "unit": "µg/mL"},
      {"measurement": "MIC", "setting": "[5]; [7]", "result": 1, "unit": "µg/mL"},
      {"measurement": "MIC", "setting": "[5]; [8]", "result": 1, "unit": "µg/mL"}
    ]}
  ]
}
